Test results from patent US8022205B2, “Pyrimidine derivatives as PI3K inhibitor and use thereof” (Chugai Seiyaku Kabushiki Kaisha, priority 2006, dated 2011).
Structures can show the parent of a compound that is named as a salt.

Tests used:
human PI3K(p110α/p85α) = human PI3K(p110α/p85α) (Homo sapiens, UniProt P42336); assay: Measurement of PI3K inhibitory activity (AlphaScreen GST Detection Kit); format: biochemical; details: 10 μM ATP, 4 μM PI(4,5)P2, read-out: Enzyme inhibitory activity (IC50, μM) PI3K α
human PI3K(p110α/p85α), sequence (P42336 whole entry): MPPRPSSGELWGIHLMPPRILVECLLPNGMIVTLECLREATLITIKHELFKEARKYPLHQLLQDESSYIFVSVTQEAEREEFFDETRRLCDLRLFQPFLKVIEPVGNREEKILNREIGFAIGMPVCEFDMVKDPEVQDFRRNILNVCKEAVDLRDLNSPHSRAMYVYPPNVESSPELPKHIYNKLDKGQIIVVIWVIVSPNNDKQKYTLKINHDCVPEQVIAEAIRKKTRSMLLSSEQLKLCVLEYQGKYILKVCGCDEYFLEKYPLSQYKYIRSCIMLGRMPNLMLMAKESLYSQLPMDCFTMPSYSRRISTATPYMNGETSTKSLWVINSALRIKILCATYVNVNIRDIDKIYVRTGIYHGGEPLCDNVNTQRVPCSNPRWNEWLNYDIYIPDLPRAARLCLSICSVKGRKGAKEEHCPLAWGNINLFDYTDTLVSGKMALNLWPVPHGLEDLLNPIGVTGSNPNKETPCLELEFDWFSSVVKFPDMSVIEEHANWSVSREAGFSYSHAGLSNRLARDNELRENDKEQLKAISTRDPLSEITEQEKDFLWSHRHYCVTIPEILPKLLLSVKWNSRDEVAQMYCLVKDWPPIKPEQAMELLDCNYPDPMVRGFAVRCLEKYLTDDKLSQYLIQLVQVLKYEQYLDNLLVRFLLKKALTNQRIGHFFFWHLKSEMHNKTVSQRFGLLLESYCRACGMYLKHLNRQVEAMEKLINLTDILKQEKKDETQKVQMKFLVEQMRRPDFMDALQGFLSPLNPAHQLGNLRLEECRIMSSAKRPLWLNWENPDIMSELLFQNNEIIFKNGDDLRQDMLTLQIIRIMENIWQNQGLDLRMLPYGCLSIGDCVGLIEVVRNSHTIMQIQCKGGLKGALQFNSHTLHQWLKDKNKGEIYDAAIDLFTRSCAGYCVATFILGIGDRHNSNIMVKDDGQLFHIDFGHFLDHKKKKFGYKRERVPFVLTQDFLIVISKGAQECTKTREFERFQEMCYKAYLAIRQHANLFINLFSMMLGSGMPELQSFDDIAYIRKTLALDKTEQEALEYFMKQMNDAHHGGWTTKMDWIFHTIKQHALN
human PI3K(p110α/p85α), sequence (P27986 whole entry partner): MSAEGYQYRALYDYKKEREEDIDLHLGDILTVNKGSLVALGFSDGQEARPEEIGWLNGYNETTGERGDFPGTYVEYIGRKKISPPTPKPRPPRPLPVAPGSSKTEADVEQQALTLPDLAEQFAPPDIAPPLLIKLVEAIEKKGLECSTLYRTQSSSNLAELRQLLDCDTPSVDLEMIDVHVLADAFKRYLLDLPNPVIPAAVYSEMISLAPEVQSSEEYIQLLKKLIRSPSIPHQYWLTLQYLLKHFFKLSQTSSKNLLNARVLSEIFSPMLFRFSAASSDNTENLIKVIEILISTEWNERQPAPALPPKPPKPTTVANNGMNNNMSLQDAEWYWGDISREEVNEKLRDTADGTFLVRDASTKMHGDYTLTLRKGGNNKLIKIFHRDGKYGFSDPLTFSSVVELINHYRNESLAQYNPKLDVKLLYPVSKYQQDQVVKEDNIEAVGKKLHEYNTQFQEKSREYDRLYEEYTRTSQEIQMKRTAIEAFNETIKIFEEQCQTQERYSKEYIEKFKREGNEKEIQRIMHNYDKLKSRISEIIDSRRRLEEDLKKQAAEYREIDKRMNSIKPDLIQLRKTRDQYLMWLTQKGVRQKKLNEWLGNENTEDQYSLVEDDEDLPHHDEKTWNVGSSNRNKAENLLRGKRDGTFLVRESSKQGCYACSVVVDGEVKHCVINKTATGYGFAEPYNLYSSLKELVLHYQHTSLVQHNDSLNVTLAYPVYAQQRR
Experimental: The inhibitory activity of compounds of the present invention represented by formula (I) were measured with human PI3K(p110α/p85α) prepared in a baculovirus expression system using the AlphaScreen GST Detection Kit (Perkin Elmer, Inc.). A predetermined concentration of the compound dissolved in dimethylsulfoxide (DMSO) and PI3K were mixed in a 384-well assay plate and after allowing to stand for 20 minutes at room temperature, 4 μM PI(4,5)P2 (Echelon Corporation) and 10 μM ATP (5 mM Hepes, pH 7.5, 2.5 mM MgCl2) were added to initiate the reaction. After reacting for 15 minutes at 37° C., GST-GRP1 expressed and purified from Escherichia coli, Anti-GST Acceptor Beads (Perkin Elmer, Inc.), Streptavidin Donor Beads (Perkin Elmer, Inc.) and biotin-PI(3,4,5) P3 (Echelon Corporation) (10 mM Tris-HCl pH 7.4, 150 mM NaCl, 7.5 mM EDTA, 1 mM DTT, 0.1% Tween 20) were added, and after allowing to stand for 1 hour at room temperature, light at 520 to 620 nm emitted as a result of exciting with light at 680 nm was measured with the Envision measuring instrument (Perkin Elmer, Inc.).
Test Example 1 described above can be performed according to “Analytical Biochemistry, 2003, 313, 234-245; Alexander Gray et al”.

[1] = tested on: human colon cancer cell line HCT116; assay: Cell proliferation inhibitory activity (Cell Counting Kit-8), colon cancer HCT116; format: cell-based; details: HCT-116, 96 h, HCT116, 4 days
Experimental: (§1) The cell proliferation inhibitory activity was measured for compounds of the present invention represented by formula (I). Cancer cell proliferation inhibitory activity was measured using the Cell Counting Kit-8 (Dojindo). 2000 cells each of human colon cancer cell line HCT116 purchased from the American Type Culture Collection (Virginia, USA) were seeded into each well of a 96-well culture plate followed by the addition of a predetermined concentration of the compounds and cultivating in a CO2environment for 4 days at 37° C. On the fourth day of cultivating, the Cell Counting Kit-8 solution was added and absorbance (measuring wavelength: 450 nm, reference wavelength: 615 nm) was measured in accordance with the protocol provided with the kit.

[2] = tested on: human prostate cancer cell line PC3; assay: Cell proliferation inhibitory activity (Cell Counting Kit-8), prostate cancer PC3; format: cell-based; details: 96 h, PC3, 4 days
Experimental: as §1
(§2) Cancer cell proliferation inhibitory activity was also measured for human lung cancer cell line NCI-H460 and human prostate cancer cell line PC3 purchased from the American Type Culture Collection. 1000 and 3000 cells of NCI-H460 and PC3, respectively, were seeded into each well of a 96-well culture plate followed by testing in the same manner as the human colon cancer cell line and calculating the percentage of cell proliferation inhibition at 2.5 μM.

[3] = tested on: human lung cancer cell line NCI-H460; assay: Cell proliferation inhibitory activity (Cell Counting Kit-8), lung cancer NCI-H460; format: cell-based; details: 96 h, NCI-H460, 4 days, read-out: Cell proliferation inhibitory activity (% Inhibition at 2.5 μM) Non-small cell lung cancer (NCI-H460)
Experimental: as §1, §2

Molecule `Cc1ccc(N2CCOCC2)cc1NC(=O)N1CCc2c(-c3cnc(N)nc3)nc(N3CCOCC3)nc21` [Example D-237, 4-(2-Amino-pyrimidin-5-yl)-2-morpholin-4-yl-5,6-dihydro-pyrrolo[2,3-d]pyrimidine-7-carboxylic acid (2-methyl-5-morpholin-4-yl-phenyl)-amide] has an IC50 (human PI3K(p110α/p85α)) of 0.005 µM, an inhibition at 2.5 µM [1] of 95% and an inhibition at 2.5 µM [2] of 97%. It also gave an inhibition at 2.5 µM [3] of 84%.

`Nc1ncc(-c2nc(N3CCOCC3)nc3c2CCN3c2ccc(CN3CCN(CCF)CC3)cc2)cn1` [Example D-329, 5-(7-{4-[4-(2-fluoroethyl)-piperazin-1-ylmethyl]-phenyl}-2-morpholin-4-yl-6,7-dihydro-5H-pyrrolo[2,3-d]pyrimidin-4-yl)-pyrimidin-2-ylamine] gave an IC50 (human PI3K(p110α/p85α)) of 0.26 µM, an inhibition at 2.5 µM [1] of 73% and an inhibition at 2.5 µM [2] of 65%. For the same molecule, the inhibition at 2.5 µM [3] was 81%.

Work on `CN1CCN(c2cc(F)c(NC(=O)N3CCc4c(-c5cnc(N)nc5)nc(N5CCOCC5)nc43)c(F)c2)CC1` [Example D-23, 4-(2-Amino-pyrimidin-5-yl)-2-morpholin-4-yl-5,6-dihydro-pyrrolo[2,3-d]pyrimidine-7-carboxylic acid [4-(4-methyl-piperazin-1-yl)-2,6-difluoro-phenyl]-amide] yielded an IC50 (human PI3K(p110α/p85α)) of 0.006 µM, an inhibition at 2.5 µM [1] of 99% and an inhibition at 2.5 µM [2] of 89%. It also gave an inhibition at 2.5 µM [3] of 100%.

Molecule `CNC(=S)N1CCc2c(-c3cccc(O)c3)nc(N3CCOCC3)nc21` [Example C-55, 4-(3-Hydroxy-phenyl)-2-morpholin-4-yl-5,6-dihydro-pyrrolo[2,3-d]pyrimidine-7-carbothioic acid methylamide trifluoroacetic acid salt] has an IC50 (human PI3K(p110α/p85α)) of 0.05 µM, an inhibition at 2.5 µM [1] of 72% and an inhibition at 2.5 µM [2] of 87%. For the same molecule, the inhibition at 2.5 µM [3] was 89%.

For `CN(Cc1cccnc1)C(=O)c1ccc(N2CCc3c(-c4cnc(N)nc4)nc(N4CCOCC4)nc32)c(F)c1` [Example D-318, 4-[4-(2-Amino-pyrimidin-5-yl)-2-morpholin-4-yl-5,6-dihydro-pyrrolo[2,3-d]pyrimidin-7-yl]-3-fluoro-N-methyl-N-pyridin-3-ylmethyl-benzamide], the IC50 (human PI3K(p110α/p85α)) was 0.007 µM, the inhibition at 2.5 µM [1] was 96% and the inhibition at 2.5 µM [2] was 94%. It also gave an inhibition at 2.5 µM [3] of 89%.

With `CN(C)CCOc1cc(N2CCc3c(-c4cnc(N)nc4)nc(N4CCOCC4)nc32)ccn1` [Example H-32, 5-[7-(2-Dimethylaminoethoxy-pyridin-4-yl)-2-morpholin-4-yl-6,7-dihydro-5H-pyrrolo[2,3-d]pyrimidin-4-yl]-pyrimidin-2-ylamine] the IC50 (human PI3K(p110α/p85α)) was 0.018 µM, the inhibition at 2.5 µM [1] was 82% and the inhibition at 2.5 µM [2] was 89%. It also gave an inhibition at 2.5 µM [3] of 86%.

`Oc1cccc(-c2nc(N3CCOCC3)nc3c2CCN3c2ccncc2)c1` [Example A-09, 3-(2-Morpholin-4-yl-7-pyridin-4-yl-6,7-dihydro-5H-pyrrolo[2,3-d]pyrimidin-4-yl)-phenol] gave an IC50 (human PI3K(p110α/p85α)) of 0.009 µM, an inhibition at 2.5 µM [1] of 83% and an inhibition at 2.5 µM [2] of 96%. For the same molecule, the inhibition at 2.5 µM [3] was 84%.

`Nc1ncc(-c2nc(N3CCOCC3)nc3c2CCN3c2ccc(C(=O)N3CCC(N4CCOCC4)CC3)cc2)cn1` [Example D-307, {4-[4-(2-Amino-pyrimidin-5-yl)-2-morpholin-4-yl-5,6-dihydro-pyrrolo[2,3-d]pyrimidin-7-yl]-phenyl}-(4-morpholin-4-yl-piperidin-1-yl)-methanone] was tested, and the IC50 (human PI3K(p110α/p85α)) was 0.009 µM, the inhibition at 2.5 µM [1] was 87% and the inhibition at 2.5 µM [2] was 89%. For the same molecule, the inhibition at 2.5 µM [3] was 58%.

In the case of `Nc1ncc(-c2nc(N3CCOCC3)nc3c2CCN3C(=O)Nc2c(F)cc(N3CCOCC3)cc2F)cn1` [Example D-273, 4-(2-Amino-pyrimidin-5-yl)-2-morpholin-4-yl-5,6-dihydro-pyrrolo[2,3-d]pyrimidine-7-carboxylic acid (2,6-difluoro-4-morpholin-4-yl-phenyl)-amide], the IC50 (human PI3K(p110α/p85α)) is reported as 0.01 µM, the inhibition at 2.5 µM [1] is reported as 83% and the inhibition at 2.5 µM [2] is reported as 79%. It also gave an inhibition at 2.5 µM [3] of 67%.

`Cc1ccc(C(=O)N2CCN(C)CC2)cc1NC(=O)N1CCc2c(-c3cnc(N)nc3)nc(N3CCOCC3)nc21` [Example D-223, 4-(2-Amino-pyrimidin-5-yl)-2-morpholin-4-yl-5,6-dihydro-pyrrolo[2,3-d]pyrimidine-7-carboxylic acid [2-methyl-5-(4-methyl-piperazine-1-carbonyl)-phenyl]-amide] showed an IC50 (human PI3K(p110α/p85α)) of 0.007 µM, an inhibition at 2.5 µM [1] of 95% and an inhibition at 2.5 µM [2] of 95%. The inhibition at 2.5 µM [3] was 92%.

In the case of `Nc1ncc(-c2nc(N3CCOCC3)nc3c2CCN3c2ccc(CNCc3cccnc3)cc2)cn1` [Example D-334], the IC50 (human PI3K(p110α/p85α)) is reported as 0.2 µM, the inhibition at 2.5 µM [1] is reported as 93% and the inhibition at 2.5 µM [2] is reported as 90%. The inhibition at 2.5 µM [3] was 94%.

In the case of `CCCN1CCN(Cc2ccc(N3CCc4c(-c5cnc(N)nc5)nc(N5CCOCC5)nc43)cc2)CC1` [Example D-327, 5-{2-morpholin-4-yl-7-[4-(4-propyl-piperazin-1-ylmethyl)-phenyl]-6,7-dihydro-5H-pyrrolo[2,3-d]pyrimidin-4-yl}-pyrimidin-2-ylamine], the IC50 (human PI3K(p110α/p85α)) is reported as 0.07 µM, the inhibition at 2.5 µM [1] is reported as 78% and the inhibition at 2.5 µM [2] is reported as 79%. The inhibition at 2.5 µM [3] was 85%.

Molecule `CC(C)N1CCN(Cc2ccc(N3CCc4c(-c5cnc(N)nc5)nc(N5CCOCC5)nc43)cc2)CC1` [Example D-328, 5-{7-[4-(4-isopropyl-piperazin-1-ylmethyl)-phenyl]-2-morpholin-4-yl-6,7-dihydro-5H-pyrrolo[2,3-d]pyrimidin-4-yl}-pyrimidin-2-ylamine] has an IC50 (human PI3K(p110α/p85α)) of 0.06 µM, an inhibition at 2.5 µM [1] of 84% and an inhibition at 2.5 µM [2] of 84%. It also gave an inhibition at 2.5 µM [3] of 91%.

For `CCN1CCN(C(=O)c2ccc(N3CCc4c(-c5cnc(N)nc5)nc(N5CCOCC5)nc43)c(F)c2)CC1` [Example D-138, {4-[4-(2-Amino-pyrimidin-5-yl)-2-morpholin-4-yl-5,6-dihydro-pyrrolo[2,3-d]pyrimidin-7-yl]-3-fluoro-phenyl}-(4-ethyl-piperazin-1-yl)-methanone], the IC50 (human PI3K(p110α/p85α)) was 0.11 µM, the inhibition at 2.5 µM [1] was 82% and the inhibition at 2.5 µM [2] was 85%. The inhibition at 2.5 µM [3] was 86%.

`CCN1CCN(C(=O)c2ccc(C)c(NC(=S)N3CCc4c(-c5cnc(N)nc5)nc(N5CCOCC5)nc43)c2)CC1` [Example D-17, 4-(2-Amino-pyrimidin-5-yl)-2-morpholin-4-yl-5,6-dihydro-pyrrolo[2,3-d]pyrimidine-7-carbothioic acid [5-(4-ethyl-piperazine-1-carbonyl)-2-methyl-phenyl]-amide] showed an IC50 (human PI3K(p110α/p85α)) of 0.024 µM, an inhibition at 2.5 µM [1] of 96% and an inhibition at 2.5 µM [2] of 93%. The inhibition at 2.5 µM [3] was 97%.

For `Nc1ncc(-c2nc(N3CCOCC3)nc3c2CCN3C(=O)Nc2ccc(NCCN3CCOCC3)cc2)cn1` [Example D-108, 4-(2-Amino-pyrimidin-5-yl)-2-morpholin-4-yl-5,6-dihydro-pyrrolo[2,3-d]pyrimidine-7-carboxylic acid [4-(2-morpholin-4-yl-ethylamino)-phenyl]-amide], the IC50 (human PI3K(p110α/p85α)) was 0.007 µM, the inhibition at 2.5 µM [1] was 92% and the inhibition at 2.5 µM [2] was 90%. It also gave an inhibition at 2.5 µM [3] of 95%.

Work on `Nc1ncc(-c2nc(N3CCOCC3)nc3c2CCN3c2ccc(C(=O)N3CCOCC3)cc2F)cn1` [Example D-22, {4-[4-(2-Amino-pyrimidin-5-yl)-2-morpholin-4-yl-5,6-dihydro-pyrrolo[2,3-d]pyrimidin-7-yl]-3-fluoro-phenyl}-morpholin-4-yl-methanone] yielded an IC50 (human PI3K(p110α/p85α)) of 0.042 µM, an inhibition at 2.5 µM [1] of 82% and an inhibition at 2.5 µM [2] of 79%. The inhibition at 2.5 µM [3] was 83%.

`CN1CCN(Cc2ccc(N3CCc4c(-c5cnc(N)nc5)nc(N5CCOCC5)nc43)cc2)CC1` [Example D-26, 5-{7-[4-(4-methyl-piperazin-1-ylmethyl)-phenyl]-2-morpholin-4-yl-6,7-dihydro-5H-pyrrolo[2,3-d]pyrimidin-4-yl}-pyrimidin-2-ylamine] showed an IC50 (human PI3K(p110α/p85α)) of 0.048 µM, an inhibition at 2.5 µM [1] of 87% and an inhibition at 2.5 µM [2] of 82%. For the same molecule, the inhibition at 2.5 µM [3] was 84%.

With `CN(C)CCOC(=O)c1cccc(-c2nc(N3CCOCC3)nc3c2CCN3c2cccnc2)c1` [Example G-27, 3-(2-Morpholin-4-yl-7-pyridin-3-yl-6,7-dihydro-5H-pyrrolo[2,3-d]pyrimidin-4-yl)-benzoic acid 2-dimethylamino-ethyl ester] the IC50 (human PI3K(p110α/p85α)) was 0.33 µM, the inhibition at 2.5 µM [1] was 44% and the inhibition at 2.5 µM [2] was 48%. The inhibition at 2.5 µM [3] was 18%.
